Test results published in patent publication US6706509B2, “Oncoprotein protein kinase” (The Regents of the University of California, priority 1993, dated 2004).

Experiments:
c-fos = assay: Northern blot of c-fos expression in Jurkat cells; format: cell-based, human
Procedure: (§1) Exponentially growing Jurkat cells (10^6/ml) grown in complete RPMI medium was pretreated with CsA for 15 minutes when applicable, then subjected to various treatments for another 40 minutes. Total cytoplasmic RNA was extracted as previously described (Angel, et al., Cell, 49:729-739, 1987). 10 μg RNA was denatured by incubating with glyoxal for 60 minutes at 55° C. and fractionated on a 1% agarose gel in phosphate buffer. The fractionated RNA was blotted to Zetabind Nylon membrane (CUNO Labs) and hybridized to ^32P-labelled cDNA probes specific for c-jun, jun-B, jun-D, c-fos, α-tubulin and IL-2.
(§2) During the first stage of T lymphocyte activation, early response genes are rapidly included (Crabtree, Science, 243:355,361, 1989; Zipfel, et al., Mol Cell Bio., 9:1041-1048, 1989). […] After fractionation of 10 μg samples on an agarose gel and transfer to nylon membrane, the level of c-jun, jun-B, jun-D, c-fos and α-tubulin expression was determined by hybridization to random primed cDNA probes.
(§3) Second, Jurkat cells were incubated with 10 μg/ml soluble anti-CD3 (OKT3), 2 μg/ml soluble anti-CD28 (9.3) or a combination of 50 ng/ml TPA and 1 μg/ml A23817 (T/A) as indicated for 40 minutes. Total cytoplasmic RNA was isolated and 10 μg samples were analyzed as described above using c-jun, jun-D and c-fos probes. […]

jun-D = assay: Northern blot of jun-D expression in Jurkat cells; format: cell-based, human; details: CsA 100 ng/ml, 40 minutes
Procedure: as §1
During the first stage of T lymphocyte activation, early response genes are rapidly included (Crabtree, Science, 243:355,361, 1989; Zipfel, et al., Mol Cell Bio., 9:1041-1048, 1989). Induction of jun and fos genes during activation of the Jurkat T cell line was investigated. […] After fractionation of 10 μg samples on an agarose gel and transfer to nylon membrane, the level of c-jun, jun-B, jun-D, c-fos and α-tubulin expression was determined by hybridization to random primed cDNA probes.

c-jun = assay: Northern blot of c-jun expression in Jurkat cells; format: cell-based, human
Procedure: as §1, §2, §3

JNK1 = assay: Epitope-tagged JNK1 protein kinase activity in transfected COS cells; format: cell-based; details: 10 nM EGF or 100 nM TPA
Procedure: JNK1 protein kinase activity was detected in the immune-complex. Immunecomplex kinase assays using either M2 immunoprecipitates or purified JNK1, JNK-46, and ERK1 or ERK2 were performed at 30° C. for 20 mins using 3 μg of substrate, 20 μM ATP and 5 μCi of [γ-^32P]ATP in 30 μl of kinase buffer (25 mM Hepes (pH 7.6), 20 mM MgCl2, 20 mM β-glycerophosphate, 20 mM p-nitrophenyl phosphate, 0.1 mM Na orthovanadate, 2 mM DTT). The reactions were terminated with Laemmli sample buffer and the products were resolved by SDS-PAGE (12% gel). JNK1 protein activity was also measured after SDS-PAGE by the in-gel kinase assay with the substrate GST-cJun(1-79) as described by Hibi, et al., supra, (1993). Solid-phase protein kinase assays were performed as described by Hibi, et al., supra, (1993). Clarified cell extracts were incubated with GST fusion proteins immobilized on GSH-agarose beads. After 3 hours at 4° C., the beads were washed extensively and bound JNK1 was detected by the addition of [γ-^32P]ATP. The reaction was terminated after 10 mins at 30° C. and the products were resolved by SDS-PAGE. The incorporation of [^32P]phosphate was visualized by autoradiography and quantitated with a phosphorimager and ImageQuant software (Molecular Dynamics Inc., Sunnyvale, Calif.). The methods used for phosphopeptide mapping (Boyle, et al., Cell 64:573-584, 1991) and phosphoamino acid analysis (Alvarez, et al., J. Biol. Chem 266:15227-15285, 1991) were described previously.
Epitope-tagged JNK1 was expressed in COS cells. Control experiments were performed using mock-transfected cells. After 48 hours, the cells were treated either without or with 100 nM TPA, 10 nM EGF, or 80 J/m^2 UV-C and incubated for 1 hr. The cells were lysed in RIPA buffer and the JNK1 proteins were isolated by immunoprecipitation with the M2 monoclonal antibody. JNK1 protein kinase activity was measured after SDS-PAGE using an in-gel kinase assay with the substrate GST-cJun(1-79) polymerized into the gel.
COS-1 cells were maintained in. Dulbecco's modified Eagle's medium supplemented with 5% […] (Gibco-BRL). Metabolic labeling with [^32P]phosphate was performed by incubation of cells in phosphate-free modified Eagle's medium (Flow Laboratories Inc.) supplemented with 0.1% fetal bovine serum and 1 mCi/ml [^32P]orthophosphate (Dupont-NEN). COS cells were treated with 10 nM EGF or 100 nM thorbol myristate acetate. The cells were then incubated for defined times at 37° C. prior to harvesting and measurement of JNK1 protein kinase activity. The data are presented as arbitrary units. […] In contrast, exposure to UV radiation caused a marked increase in JNK1 activity.

## cyclosporin A [CsA]
c-fos; CsA 100 ng/ml, 40 minutes
  effect on maximal induction of c-fos by TPA+A23187: not inhibited
jun-D
  effect on potentiation of jun-D expression by TPA+A23187: not inhibited
c-jun; CsA 100 ng/ml with TPA+A23187 or anti-CD3+anti-CD28, 40 minutes
  effect on synergistic induction of c-jun by both costimulatory paradigms: partially inhibited

## CCCCCCCCCCCCCC(=O)O[C@@H]1[C@@H](C)[C@@]2(O)[C@@H](C=C(CO)C[C@]3(O)C(=O)C(C)=C[C@@H]23)[C@H]2C(C)(C)[C@]12OC(C)=O [TPA]
JNK1
  JNK1 activation: low level of JNK1 activation
  duration of JNK1 activation: approximately 2 hours

## anti-CD3: anti-CD3 monoclonal antibody OKT3
c-fos; soluble anti-CD3, 40 minutes
  c-fos expression, agent alone: induction
c-jun; soluble anti-CD3, 40 minutes
  c-jun expression, agent alone: induction
